“Also recorded” adds a separate entry of the source. Read-outs that look alike come from different tables or passages of the source.
Key:
alkaline phosphatase = alkaline phosphatase catalyzed dephosphorylation of the lectin-purified insulin receptor; format: biochemical
Description: To do so, lectin-purified insulin receptor (6.0 fmol of insulin binding) was preincubated with 10^-7 M insulin for 60 min at 4° C. Phosphorylation was initiated by addition of [γ^-32 P]ATP, and the insulin receptor was immunoprecipitated by incubating with anti-insulin receptor antibody (140 μg of protein) for 4h at 4° C. followed by incubation with protein A-SEPHAROSE * beads for 1 h at 4° C. The immunoprecipitate was washed twice with 50 mM HEPES buffer, pH 7.6, containing 0.1% TRITON X-100 * detergent and 0.1% SDS and once with the above buffer without SDS. After being washed, the immunoprecipitate was incubated with or without the indicated concentrations of vanadate, H2 O2, or pervanadate in the presence or absence of a 15 units.mL solution of alkaline phosphatase for 60 min at 4° C. with vigorous shaking. This sample was washed twice with 50 mM HEPES buffer, pH 7.6, containing 0.1% TRITON X-100 * detergent and subjected to SDS-PAGE followed by radioautography as shown in FIG. 1. Densitometric scanning of the radioautographs was done with a ZEINER * soft laser scanning densitometer (Model SL-504-XL).

[1] = test system: rat hepatocyte phosphotyrosine phosphatase; assay: insulin receptor tyrosine dephosphorylation catalyzed by crude phosphotyrosine phosphatase from rat liver microsomes; format: biochemical
Description: Since vanadate and pervanadate may have different specificities for various phosphoprotein phosphatases, their inhibitory effects were separated tested on insulin receptor tyrosine dephosphorylation catalyzed by a crude preparation of phosphotyrosine phosphatase activity extracted from rat liver microsomes.
The samples were processed as in example 1, except that after being washed, the immunoprecipitate was incubated with or without 10^-4 M vanadate, 10^-4 M H2 O2 or 10^-4 m pervanadate in the presence or absence of an equal volume, 50 μL, of rat hepatocyte phosphotyrosine phosphatase (as described above) for 20 min at 30° C. with vigorous shaking.

tyrosine phosphatases = conditions: cited from earlier work
insulin receptor [2] = target: T1, insulin receptor (Rattus norvegicus, UniProt P15127); assay: Insulin Receptor Autophosphorylation Assay; format: biochemical; conditions: 10^-3 to 10^-7 M, 15 min, 37° C.; WGA-purified adipocyte insulin receptors
T1 construct: Insulin receptors were solubilized and partially purified by WGA chromatography; endogenous in cells; host or cells: isolated rat adipocytes
T1 sequence (P15127 764-1383 limits assumed): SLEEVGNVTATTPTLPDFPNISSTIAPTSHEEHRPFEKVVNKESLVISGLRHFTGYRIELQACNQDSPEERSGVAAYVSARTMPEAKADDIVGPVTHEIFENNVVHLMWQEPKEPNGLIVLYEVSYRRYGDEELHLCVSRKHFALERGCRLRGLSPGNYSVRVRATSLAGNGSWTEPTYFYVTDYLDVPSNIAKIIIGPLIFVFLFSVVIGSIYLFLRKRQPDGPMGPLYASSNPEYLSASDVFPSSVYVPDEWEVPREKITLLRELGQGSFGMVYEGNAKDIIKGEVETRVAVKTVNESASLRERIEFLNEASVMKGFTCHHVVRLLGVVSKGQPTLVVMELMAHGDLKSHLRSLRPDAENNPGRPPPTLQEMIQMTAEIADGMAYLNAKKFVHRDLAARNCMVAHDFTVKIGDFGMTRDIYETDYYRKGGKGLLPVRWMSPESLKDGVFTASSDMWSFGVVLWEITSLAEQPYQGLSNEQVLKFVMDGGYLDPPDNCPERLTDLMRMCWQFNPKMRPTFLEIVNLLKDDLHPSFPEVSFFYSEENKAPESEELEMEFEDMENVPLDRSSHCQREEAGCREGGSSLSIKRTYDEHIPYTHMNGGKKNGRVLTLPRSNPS
T1 sequence (P15127 27-759 partner limits assumed): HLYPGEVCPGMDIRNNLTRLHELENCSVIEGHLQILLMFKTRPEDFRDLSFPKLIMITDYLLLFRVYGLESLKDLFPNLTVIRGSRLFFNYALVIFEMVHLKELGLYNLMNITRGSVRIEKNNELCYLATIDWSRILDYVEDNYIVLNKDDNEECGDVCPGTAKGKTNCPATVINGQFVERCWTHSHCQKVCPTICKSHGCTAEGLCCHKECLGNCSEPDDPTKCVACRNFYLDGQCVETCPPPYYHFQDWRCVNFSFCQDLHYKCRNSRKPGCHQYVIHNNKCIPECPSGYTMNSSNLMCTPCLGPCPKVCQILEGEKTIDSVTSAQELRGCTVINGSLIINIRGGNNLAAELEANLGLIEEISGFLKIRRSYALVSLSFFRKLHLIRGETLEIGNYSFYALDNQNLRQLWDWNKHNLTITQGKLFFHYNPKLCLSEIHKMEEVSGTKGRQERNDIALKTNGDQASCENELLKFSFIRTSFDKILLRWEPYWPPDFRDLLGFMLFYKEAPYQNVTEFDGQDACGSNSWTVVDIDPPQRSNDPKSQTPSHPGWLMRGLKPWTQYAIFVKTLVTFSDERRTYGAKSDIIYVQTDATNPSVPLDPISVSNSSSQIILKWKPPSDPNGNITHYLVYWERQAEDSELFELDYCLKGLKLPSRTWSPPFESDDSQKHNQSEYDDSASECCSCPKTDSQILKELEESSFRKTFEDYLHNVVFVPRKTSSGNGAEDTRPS
Description: To elucidate further the mechanism of action of pervanadate, this compound was added in vitro to solubilized WGA-purified adipocyte insulin receptors.
Isolated rat adipocytes were incubated with different concentrations of pervanadate (10^-3 to 10^-7 M), 10 ng/mL (1.7×10^-9 M) insulin, or no additions for 15 min at 37° C. Insulin receptors were solubilized and partially purified by WGA chromatography. […] An aliquot of insulin receptor (5-10 fmol of insulin binding) was used in the autophosphorylation assay as described below, in the presence or absence of in vitro insulin, followed by SDS-PAGE and radioautography.
The Insulin Receptor Autophosphorylation Assay proceeded as follows: lectin-purified insulin receptor (5-10 fmol of insulin binding) was incubated with or without 10^-7 M insulin in a 50 mM HEPES buffer containing 8 mM MnCl2, 10 mM MgCl2, 270 μM dithiothreitol, and 10 μg/mL bovine serum albumin for 1 h at 4° C., in a total volume of 90 μL. The phosphorylation reaction was initiated by the addition of 10 μL of diluted [γ^-32 P]ATP (10 Ci/mmol) to a final concentration of 50 μM, and the reaction mixture was further incubated for 15 min at 4° C. […]

[3] = stability of the pervanadate solution; format: physicochemical; conditions: after catalase 200 μg/mL to remove residual H2 O2
Description: The vanadate solution used in the examples presented below was prepared as described in Kadota et al. supra, to avoid changes in pH and the generation of colored decavanadate (orange-yellow) or vanadyl ion, VO^2+ (blue). The solution of pervanadate was prepared by mixing vanadate or vanadate containing substance with H2 O2 or a peroxide-containing substance (10^-3 M unless otherwise indicated) for 15 min at 22° C. This was followed by the addition of catalase, 200 μg/mL, to remove residual H2 O2. […] The concentration of pervanadate generated is denoted by the vanadate concentration added to the mixture.

insulin receptor [4] = conditions: adipocytes, cited from earlier work
tyrosine kinase = conditions: cited from earlier work
[5] = increasing concentrations, 15 units/mL alkaline phosphatase, 60 min, 4° C., SDS-PAGE, radioautography

Molecule | inhibition of alkaline phosphatase-catalyzed dephosphorylation of 32P-labeled insulin receptor β-subunit (alkaline phosphatase; 10^-3 M alone) | inhibition of insulin receptor tyrosine dephosphorylation catalyzed by rat hepatocyte phosphotyrosine phosphatase [1] | inhibition of alkaline phosphatase-catalyzed dephosphorylation of 32P-labeled insulin receptor β-subunit (alkaline phosphatase; [5]) | inhibition of insulin receptor tyrosine dephosphorylation catalyzed by rat hepatocyte phosphotyrosine phosphatase ([1]; 10^-4 M, 20 min, 30° C.) | inhibition of tyrosine phosphatases (tyrosine phosphatases) | stimulation of insulin receptor autophosphorylation (insulin receptor [2]) | time the peroxidized form of vanadate is stable without further addition of H2 O2 [3] [h] | in situ tyrosine phosphorylation of the insulin receptor (insulin receptor [4]) | activation of the insulin receptor kinase (insulin receptor [4]; time course versus insulin) | stimulation of autophosphorylation of exogenous tyrosine kinase activity (tyrosine kinase)
OO [H2 O2, hydrogen peroxide, reference compound] | without effect | without effect | – | – | – | – | – | – | – | –
[O]=[V]([O-])([O-])[O-] [vanadate] | – | – | inhibited the dephosphorylation of the ^32 P-labeled insulin receptor in a dose- dependent manner | inhibited dephosphorylation but with less efficacy | inhibit tyrosine phosphatases | – | – | – | – | –
pervanadate | – | – | much less than that by vanadate alone; also recorded: does not inhibit | powerfully inhibited tyrosine dephosphorylation; also recorded: potent inhibitor; also recorded: more efficacious than vanadate | – | did not significantly stimulate autophosphorylation | 2 | maximal effects similar to that of insulin | activates the insulin receptor kinase but with a slower time course than insulin | does not either stimulate
